Like-named read-outs stand apart in the source and are kept apart here.
How the values were obtained:
[1] = tested on: PC-3 prostate cancer cells; assay: Cell growth inhibition, MTT, PC-3 prostate cancer cells; assay type: cell-based, human; conditions: for IC50: Homo sapiens, 120 h, 5 days incubation, MTT cell viability, read-out: Cellular Activity IC50 (μM) PC3
Procedure: (§1) To test the effect of compounds of the present invention on inhibition of cell growth in human cancer cells, the compounds were administered to two different cancer cell lines. PC-3 prostate cancer cells and 2LMP breast cancer cells were each seeded in 96-well plates with increasing concentrations of inhibitor compounds. The cells were then incubated at 37° C. with 5% CO2 for 5 days, followed by detection of cell viability with MTT. Untreated cells were used as 100% growth.

[2] = molecular target: T1, human Bcl-xL recombinant His-tagged protein (Homo sapiens, UniProt Q07817); assay: Bcl-xL fluorescence polarization-based competitive binding assay (Flu-Bak peptide); conditions: for Ki: FP assay, 60 nM Bcl-xL, 5 nM Flu-Bak peptide, Ki calculated from IC50; for fold decrease of binding affinity to Bcl-xL: relative to the parent analogue (15d compared with 15b; 15j: removal of the big hydrophobic group)
T1 construct: without the C-terminus hydrophobic tail; His
T1 sequence (Q07817 1-209 limits assumed): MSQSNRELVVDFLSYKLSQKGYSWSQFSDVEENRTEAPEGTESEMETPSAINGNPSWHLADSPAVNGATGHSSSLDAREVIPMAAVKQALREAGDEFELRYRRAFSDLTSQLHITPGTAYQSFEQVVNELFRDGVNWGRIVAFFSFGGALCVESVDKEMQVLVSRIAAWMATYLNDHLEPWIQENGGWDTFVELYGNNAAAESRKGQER

2LMP breast cancer cells = assay: Cell growth inhibition, MTT, 2LMP breast cancer cells; assay type: cell-based, human; conditions: for IC50: Homo sapiens, 120 h, 5 days incubation, MTT cell viability, read-out: Cellular Activity IC50 (μM) 2LMP
Procedure: as §1

[3] = molecular target: Bcl-2 recombinant His-fused soluble protein (Homo sapiens, UniProt P10415); assay: Bcl-2 fluorescence polarization-based competitive binding assay (Flu-Bid-21 peptide); conditions: for Ki: FP assay, 0.120 μM Bcl-2, 0.010 μM Flu-Bid-21, 4 hours incubation, Ki calculated from IC50, read-out: Binding Affinity Ki (μM) Bc1-2; for fold decrease of binding affinity to Bcl-2: relative to the parent analogue (15c, 15d compared with 15b; 15j: removal of the big hydrophobic group)
Sequence of Bcl-2 recombinant His-fused soluble protein (P10415 whole entry, the tested form may be a part): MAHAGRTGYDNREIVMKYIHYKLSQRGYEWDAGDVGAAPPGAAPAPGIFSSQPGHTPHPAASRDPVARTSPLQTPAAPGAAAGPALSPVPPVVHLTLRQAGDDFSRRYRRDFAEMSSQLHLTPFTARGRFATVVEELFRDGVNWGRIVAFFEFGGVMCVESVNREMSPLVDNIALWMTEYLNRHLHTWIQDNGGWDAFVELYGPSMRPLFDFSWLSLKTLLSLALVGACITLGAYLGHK

[4] = read-out: Binding Affinity Ki (μM) Bc1-xL

Cc1oc2c(CC(C)C)c(O)c(O)c(O)c2c(=O)c1-c1ccccc1 [Compound 15f, 5,6,7-Trihydroxy-8-isobutyl-2-methyl-3-phenyl-chromen-4-one]
IC50 [1]: 23.7 µM
Ki [2, 4]: 4.27 ± 0.84 µM
IC50 (2LMP breast cancer cells): 9.3 µM
Ki [3]: 0.79 ± 0.03 µM

Cc1cc(=O)c2c(O)c(O)c(O)c(CC(C)C)c2o1 [Compound 15j, 5,6,7-Trihydroxy-8-isobutyl-2-methyl-chromen-4-one]
IC50 [1]: 20.1 µM
Ki [2, 4]: > 14 µM
fold decrease of binding affinity to Bcl-xL [2]: more than 10 fold
IC50 (2LMP breast cancer cells): > 30 µM
Ki [3]: 4.63 ± 0.16 µM
fold decrease of binding affinity to Bcl-2 [3]: > 50 fold

Cc1oc2c(CC(C)C)c(O)c(O)c(O)c2c(=O)c1-c1ccc2ccccc2c1 [Compound 15c, 5,6,7-Trihydroxy-8-isobutyl-2-methyl-3-naphthalen-2-yl-chromen-4-one]
IC50 [1]: 3.62 µM
Ki [2, 4]: 2.32 ± 0.26 µM
IC50 (2LMP breast cancer cells): 2.08 µM
Ki [3]: 0.39 ± 0.17 µM
fold decrease of binding affinity to Bcl-2 [3]: about 2 fold

COc1c(OC)c(OC)c2c(=O)c(-c3ccc4cc(O)ccc4c3)c(C)oc2c1CC(C)C [Compound 15d, 3-(6-Hydroxy-naphthalen-2-yl)-8-isobutyl-5,6,7-trimethoxy-2-methyl-chromen-4-one]
IC50 [1]: 20.6 µM
Ki [2, 4]: > 14 µM
fold decrease of binding affinity to Bcl-xL [2]: more than 10 fold
IC50 (2LMP breast cancer cells): > 30 µM
Ki [3]: 1.24 ± 0.13 µM
fold decrease of binding affinity to Bcl-2 [3]: more than 10 fold

CCOc1ccc2cc(-c3c(C)oc4c(CC(C)C)c(OC)c(OC)c(OC)c4c3=O)ccc2c1 [Compound 15e, 3-(6-Ethoxy-naphthalen-2-yl)-8-isobutyl-5,6,7-trimethoxy-2-methyl-chromen-4-one]
Ki [2, 4]: > 14 µM
Ki [3]: > 12 µM

Cc1cc2c(C(C)C)c(O)c(O)c(C=O)c2c(O)c1-c1c(C)cc2c(C(C)C)c(O)c(O)c(C=O)c2c1O [gossypol, reference compound]
IC50 [1]: 9.7 µM
Ki ([2]; Binding Affinity Ki (μM) Bc1-xL): 1.97 ± 0.39 µM
IC50 (2LMP breast cancer cells): 6 µM

Cc1oc2c(CC(C)C)c(O)c(O)c(O)c2c(=O)c1-c1ccc2cc(O)ccc2c1 [Compound 15b, 5,6,7-Trihydroxy-3-(6-hydroxy-naphthalen-2-yl)-8-isobutyl-2-methyl-chromen-4-one]
IC50 [1]: 5.07 µM
Ki [2, 4]: 1.71 ± 0.22 µM
IC50 (2LMP breast cancer cells): 2.55 µM
Ki [3]: 0.17 ± 0.02 µM

Cc1oc2c(CC(C)C)c(O)c(O)c(O)c2c(=O)c1-c1ccc2c(C)c(O)ccc2c1 [Compound 15a, 5,6,7-Trihydroxy-3-(6-hydroxy-5-methyl-naphthalen-2-yl)-8-isobutyl-2-methyl-chromen-4-one]
IC50 [1]: 3.09 µM
Ki [2, 4]: 1.78 ± 0.13 µM
IC50 (2LMP breast cancer cells): 1.44 µM
Ki [3]: 0.13 ± 0.01 µM

Cc1oc2c(CC(C)C)c(O)c(O)c(O)c2c(=O)c1-c1ccc2c(C(C)C)c(O)ccc2c1 [Compound 2, 5,6,7-Trihydroxy-3-(6-hydroxy-5-isopropyl-naphthalen-2-yl)-8-isobutyl-2-methyl-chromen-4-one]
IC50 [1]: 1.82 µM
fold more potent than gossypol, cell growth inhibitory activity, PC3 ([1]; relative to gossypol): 3 to 4 fold
Ki [2, 4]: 1.49 µM
IC50 (2LMP breast cancer cells): 1.54 µM
fold more potent than gossypol, cell growth inhibitory activity, 2LMP (2LMP breast cancer cells; relative to gossypol): 3 to 4 fold
Ki [3]: 0.088 µM

— US20060247305A1, “Chromen-4-one inhibitors of anti-apoptotic Bcl-2 family members and the uses thereof” (Regents of the University of Michigan, priority 2005, published 2006)
